Here are results for 13 compounds from patent US20250179103A1, “6-OXODECAHYDROPYRROLO[1,2-A][1,5]DIAZOCINE AND 6-OXODECAHYDRO-4H-PYRROLO[2,1-D][1,5]THIAZOCINE DERIVATIVES AS STAT3 AND STAT6 MODULATORS FOR THE TREATMENT OF CANCER AND INFLAMMATORY CONDITIONS” (Recludix Pharma, Inc., priority 2022, published 2025).

Each structure is given as a SMILES string.

Assay [1] relates to pY705-STAT3 in Peripheral Blood Mononuclear Cells (PBMC). In words: MSD-pSTAT-PBMC Assay (pSTAT3, IL-6 stimulated). In kind it is cell-based, Human. Particulars: compound 3 hrs, then 10 ng/mL IL-6 for 10 min. The method, boiled down: (§1)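 Phospho-STAT readout used MSD electrochemiluminescence with total STAT3 or STAT6 capture in lysates of cryopreserved human PBMCs. Cells had 3 h compound exposure before a 10 min cytokine pulse: IL-6 10 ng/mL for pSTAT3, IL-4 1 ng/mL for pSTAT6. IC50 came from background-subtracted, DMSO-normalised signal, with categories A≤100 nM up to D>3 μM.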

Assay [2] relates to pY641-STAT6 in Peripheral Blood Mononuclear Cells (PBMC). In words: MSD-pSTAT-PBMC Assay (pSTAT6, IL-4 stimulated). Particulars: compound 3 hrs, then 1 ng/mL IL-4 for 10 min. In kind it is cell-based, Human. The method, boiled down:
as §1

Usually IC50 stands for the concentration that gives 50% inhibition. Low readings indicate inhibition by little substance, high ones a need for much substance. Turning to `CC(C)CC(=O)SCCOP(=O)(OCCSC(=O)CC(C)C)C(F)(F)c1ccc2ccc(C(=O)N[C@H]3CN(CC(F)F)CC[C@H]4CC[C@@H](C(=O)N5C[C@H](c6cc(F)cc(F)c6)[C@@H](C#N)C5)N4C3=O)cc2c1` (relative stereo) [Compound 341, S,S′-(((((7-(((5S,8S,10aR)-8-((rel-trans)-3-cyano-4-(3,5-difluorophenyl)pyrrolidine-1-carbonyl)-3-(2,2-difluoroethyl)-6-oxodecahydropyrrolo[1,2-a][1,5]diazocin-5-yl)carbamoyl)naphthalen-2-yl)difluoromethyl)phosphoryl)bis(oxy))bis(ethane-2,1-diyl))bis(3-methylbutanethioate)], the values for the IC50 in assay [1] (Homo sapiens) and in assay [2] (Homo sapiens) were more than 3000 nM and 1000 to 3000 nM, respectively.
As for `CC(C)(C)C(=O)OCOP(=O)(OCOC(=O)C(C)(C)C)C(F)(F)c1ccc2sc(C(=O)N[C@H]3CN(CC(F)F)CC[C@H]4CC[C@@H](C(=O)N5CC(C(=O)N6CCOCC6)C5)N4C3=O)cc2c1` [Compound 350, ((((2-(((5S,8S,10aR)-3-(2,2-difluoroethyl)-8-(3-(morpholine-4-carbonyl)azetidine-1-carbonyl)-6-oxodecahydropyrrolo[1,2-a][1,5]diazocin-5-yl)carbamoyl)benzo[b]thiophen-5-yl)difluoromethyl)phosphoryl)bis (oxy))bis(methylene) bis(2,2-dimethylpropanoate)], the 50% inhibitory concentration (IC50) in assay [1] (Homo sapiens) is not above 100 nM; in assay [2], 100 to 1000 nM.
With `CC(=O)N1CC[C@H]2CC[C@@H](C(=O)N3C[C@H](O)[C@@H](n4ccnn4)C3)N2C(=O)[C@@H](NC(=O)c2ccc3ccc(C(F)(F)P(=O)(OCCSC(=O)CC(C)C)OCCSC(=O)CC(C)C)cc3c2)C1` [Compound 305, S,S′-(((((7-(((5S,8S, 10aR)-3-acetyl-8-((3S,4S)-3-hydroxy-4-(1H-1,2,3-triazol-1-yl)pyrrolidine-1-carbonyl)-6-oxodecahydro-pyrrolo[1,2-a][1,5]diazocin-5-yl)carbamoyl)naphthalen-2-yl)difluoro-methyl)phos-phoryl)bis(oxy))bis(ethane-2,1-diyl)) bis(3-methylbutane-thioate)], the IC50 in assay [1] (Homo sapiens) is 1000 to 3000 nM; in assay [2] (Homo sapiens), more than 3000 nM.
For `CC(C)(C)C(=O)OCOP(=O)(OCOC(=O)C(C)(C)C)C(F)(F)c1ccc2ccc(C(=O)NC3CN(CC(F)F)CCC4CCC(C(=O)N5CC(C#N)C(c6cc(F)cc(F)c6)C5)N4C3=O)cc2c1` [Compound 344, ((((7-(((5S,8S,10aR)-8-((rel-trans)-3-cyano-4-(3,5-difluorophenyl)pyrrolidine-1-carbonyl)-3-(2,2-difluoroethyl)-6-oxodecahydropyrrolo[1,2-a][1,5]diazocin-5-yl)carbamoyl)naphthalen-2-yl)difluoromethyl)phosphoryl)bis(oxy)) bis(methylene) bis(2,2-dimethylpropanoate)], the IC50 in assay [1] fell in the range of 1000 to 3000 nM; in assay [2] it was 100 to 1000 nM.
`Cc1ccc2[nH]nc(C(=O)N3CC[C@H]4CC[C@@H](C(=O)N(C)C)N4C(=O)[C@@H](NC(=O)c4ccc5ccc(C(F)(F)P(=O)(OCCSC(=O)CC(C)C)OCCSC(=O)CC(C)C)cc5c4)C3)c2c1` [Compound 331, S,S′-(((((7-(((5S,8S,10aR)-8-(dimethylcarbamoyl)-3-(5-methyl-1H-indazole-3-carbonyl)-6-oxodecahydropyrrolo[1,2-a][1,5]diazocin-5-yl)carbamoyl)naphthalen-2-yl)difluoromethyl)phosphoryl)bis(oxy))bis(ethane-2,1-diyl))bis(3-methylbutanethioate)]: the IC50 in assay [1] (Homo sapiens) is more than 3000 nM; in assay [2] (Homo sapiens), not above 100 nM.
On the same counts, the results for `CC(=O)N1CC[C@H]2CC[C@@H](C(=O)N3C[C@@H](C#N)[C@H](c4cc[nH]c(=O)c4)C3)N2C(=O)[C@@H](NC(=O)c2ccc3ccc(C(F)(F)P(=O)(OCCSC(=O)CC(C)C)OCCSC(=O)CC(C)C)cc3c2)C1` (single isomer, unassigned) [Compound 306, S,S′-(((((7-(((5S,8S, 10aR)-3-acetyl-8-((3S,4R or 3r,4S)-3-cyano-4-(2-oxo-1,2-dihydro-pyridin-4-yl)pyrrolidine-1-carbonyl)-6-oxodecahydro-pyrrolo[1,2-a][1,5]diazocin-5-yl)carbamoyl)naphthalen-2-yl)difluoro-methyl)phos-phoryl)bis(oxy))bis(ethane-2,1-diyl)) bis(3-methylbutane-thioate)] are more than 3000 nM and 1000 to 3000 nM.
The corresponding values for `CCCC(=O)SCCOP(=O)(OCCSC(=O)CCC)C(F)(F)c1ccc2ccc(C(=O)N[C@H]3CCN(CC(F)F)C[C@H]4CC[C@@H](C(=O)N5CC(c6cc[nH]c(=O)c6)CC56CC6)N4C3=O)cc2c1` (stereo partly drawn) [Compound 335, S,S′-(((((7-(((5S,8S,10aR)-2-(2,2-difluoroethyl)-6-oxo-8-(6-(2-oxo-1,2-dihydropyridin-4-yl)-4-azaspiro[2.4]heptane-4-carbonyl)decahydropyrrolo [1,2-a][1,4]diazocin-5-yl)carbamoyl)naphthalen-2-yl)difluoromethyl)phosphoryl)bis(oxy))bis(ethane-2,1-diyl))dibutanethioate] are 1000 to 3000 nM and not above 100 nM.
On the same counts, the results for `CC(=O)N1CC[C@H]2CC[C@@H](C(=O)N(C)c3ccc(C(C)(C)C)cc3)N2C(=O)[C@@H](NC(=O)c2cc3cc(C(F)(F)P(=O)(OCOC(=O)C(C)(C)C)OCOC(=O)C(C)(C)C)ccc3s2)C1` [Compound 319, ((((2-(((5S,8S, 10aR)-3-acetyl-8-((4-(tert-butyl)phenyl) (methyl)carbamoyl)-6-oxodecahydro-pyrrolo[1,2-a][1,5]diazocin-5-yl)carbamoyl)benzo[b]thiophen-5-yl)difluoro-methyl)phos-phoryl)bis(oxy)) bis(methylene) bis(2,2-dimethylpro-panoate)] are 100 to 1000 nM and not above 100 nM.
As for `CC(C)(C)C(=O)OCOP(=O)(OCOC(=O)C(C)(C)C)C(F)(F)c1ccc2sc(C(=O)N[C@H]3CN(CC(F)F)CC[C@H]4CC[C@@H](C(=O)N5CC(C(=O)N6CCOCC6)C5)N4C3=O)cc2c1` [Compound 351, ((((2-(((5S,8S,10aR)-3-(2,2-difluoroethyl)-8-(3-(morpholine-4-carbonyl)azetidine-1-carbonyl)-6-oxodecahydropyrrolo[1,2-a][1,5]diazocin-5-yl)carbamoyl)benzo[b]thiophen-5-yl)difluoromethyl)phosphoryl)bis (oxy))bis(methylene) bis(2,2-dimethylpropanoate)], the results for the IC50 in assay [1] and in assay [2] were not above 100 nM and 1000 to 3000 nM, respectively.
With `CCCC(=O)SCCOP(=O)(OCCSC(=O)CCC)C(F)(F)c1ccc2ccc(C(=O)N[C@H]3CN(C(C)=O)CC[C@H]4CC[C@@H](C(=O)N5C[C@H](c6cc[nH]c(=O)c6)[C@@H](C#N)C5)N4C3=O)cc2c1` (single isomer, unassigned) [Compound 304, S,S′-(((((7-(((5S,8S, 10aR)-3-acetyl-8-((3R,4S or 3S,4R)-3-cyano-4-(2-oxo-1,2-dihydro-pyridin-4-yl)pyrrolidine-1-carbonyl)-6-oxodecahydro-pyrrolo[1,2-a][1,5]diazocin-5-yl)carbamoyl)naphthalen-2-yl)difluoro-methyl)phos-phoryl)bis(oxy))bis(ethane-2,1-diyl))di-butanethioate], the IC50 is more than 3000 nM in assay [1] (Homo sapiens) and 100 to 1000 nM in assay [2] (Homo sapiens).
The corresponding values for `CCCC(=O)SCCOP(=O)(OCOC(=O)OC(C)C)C(F)(F)c1ccc2ccc(C(=O)N[C@H]3CN(C(C)=O)CC[C@H]4CC[C@@H](C(=O)N5C[C@H](c6cc[nH]c(=O)c6)[C@@H](C#N)C5)N4C3=O)cc2c1` (single isomer, unassigned) [Compound 303, S-(2-((((7-(((5S,8S, 10aR)-3-acetyl-8-((3R,4S or 3S,4R)-3-cyano-4-(2-oxo-1,2-dihydro-pyridin-4-yl)pyrrolidine-1-carbonyl)-6-oxodecahydro-pyrrolo[1,2-a][1,5]diazocin-5-yl)carbamoyl)naphthalen-2-yl)difluoro-methyl)(((iso-propoxy-carbonyl)oxy)methoxy)phosphoryl)oxy)ethyl) butanethioate] are 1000 to 3000 nM and 100 to 1000 nM.
For the compound `CC(=O)N1CC[C@H]2CC[C@@H](C(=O)Nc3ccc(S(C)(=O)=O)cc3)N2C(=O)[C@@H](NC(=O)c2cc3cc(C(F)(F)P(=O)(OCOC(=O)C(C)(C)C)OCOC(=O)C(C)(C)C)ccc3s2)C1` [Compound 314, ((((2-(((5S, 8S,10aR)-3-acetyl-8-((4-(methyl-sulfonyl)phenyl)carbamoyl)-6-oxodecahydro-pyrrolo[1,2-a][1,5]diazocin-5-yl)carbamoyl)benzo[b]thiophen-5-yl)difluoro-methyl)phos-phoryl)bis(oxy))bis (methylene) bis(2,2-dimethylpro-panoate)], the results for the IC50 in assay [1] (Homo sapiens) and in assay [2] (Homo sapiens) were 1000 to 3000 nM and 100 to 1000 nM, respectively.
Take `CC(C)(C)C(=O)OCOP(=O)(OCOC(=O)C(C)(C)C)C(F)(F)c1ccc2sc(C(=O)N[C@H]3CN(CC(F)F)CC[C@H]4CC[C@@H](C(=O)N5C[C@@H](C#N)[C@H](c6ccccc6)C5)N4C3=O)cc2c1` (single isomer, unassigned) [Compound 348, ((((2-(((5S,8S,10aR)-8-((3S,4R or 3R,4S)-3-cyano-4-phenylpyrrolidine-1-carbonyl)-3-(2,2-difluoroethyl)-6-oxodecahydropyrrolo[1,2-a][1,5]diazocin-5-yl)carbamoyl)benzo[b]thiophen-5-yl)difluoromethyl)phosphoryl)bis (oxy)) bis(methylene) bis(2,2-dimethylpropanoate)]: the IC50 in assay [1] (Homo sapiens) and in assay [2] (Homo sapiens) was not above 100 nM throughout.
